The values that follow come from PubChem BioAssay (NCI).

Where “and” joins values, the source holds several entries; their conditions need not be identical. Identical values can stand only once.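 Assay format: 96-well plates, 48-hour exposure. Abbreviation: GI50, concentration required for 50% inhibition of growth. TGI: concentration producing complete growth inhibition.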

Test in all cases: NCI anticancer screen, dose series, 48 h
In test [1] the test system is OVCAR-4 ovarian.
For test [2], the system named is RPMI-8226 leukemia.
Test [3] concerns TK-10 renal.
The subject of test [4] is LOX IMVI melanoma.
For test [5], the system named is EKVX NSCLC.
For test [6], the system named is HCT-116 colon.
Test [7] deals with SK-OV-3 ovarian.
The test system of test [8] is MCF7 breast.
The subject of test [9] is MALME-3M melanoma.
For test [10], the system named is SR leukemia.

As for `COc1ccc(C(CC(=O)c2ccc3c(c2)OCO3)c2c(O)c3ccccc3oc2=O)cc1OC` (stereo not drawn), the TGI in [1], in test [2], in [3], in test [4], in test [5] and in test [6] was greater than 100 µM each time. The TGI in [7], in test [8] and in test [9] was greater than 100 µM each time.

In the case of `O=C(c1ccco1)c1c(C(F)(F)F)n([O-])c2ccc(C(F)(F)F)cc2[n+]1=O`, the GI50 in test [2] is 0.383 µM; in test [3], 0.926 µM; in test [4], 0.127 µM; in test [5], 0.727 µM; in test [6] it was 0.147 µM; in [10], 0.127 µM. Further, the GI50 in test [7] is 1.12 µM; in test [8], 0.307 µM; in test [9] it was 0.595 µM. Also, the TGI is 1.68 µM in test [2]; 2.3 µM in test [3]; 0.257 µM in [4]; 2.07 µM in test [5]; 0.279 µM in test [6]; 0.408 µM in test [10]. In addition, the TGI in [7] stood at 2.48 µM; in test [8], 0.872 µM; in [9] it was 1.47 µM.

For the compound `COc1cc2c(/C=N\N=C(N)N)c[nH]c2cc1C`, the GI50 in test [2] was 14.3 µM; in test [3] it was 38.4 µM; in [4], 31.8 µM; in [5] it was 28.3 µM; in test [6], 14.6 µM; in test [10], 16.5 µM. Also, the values for the GI50 in [7] and in test [8] were 25.8 µM and 13 µM, respectively. Besides, the TGI in [2] is 27.4 µM; in test [3] it was greater than 100 µM; in test [4], greater than 100 µM; in [5], 88.5 µM; in [6], 27.7 µM; in [10] it was 30.1 µM. Besides, the TGI in test [7] amounted to 62.2 µM; in test [8], 25.7 µM.

`COC(=O)C1C(O)C(C(=O)OC)C(C)N(C)C1C` (stereo not drawn): the TGI in test [1], in test [2], in test [3], in test [4], in test [5] and in [6] was greater than 100 µM each time. Moreover, the TGI in [10], in test [7] and in test [8] was greater than 100 µM throughout.

On to `CC(C)c1[nH]nc2c1N=C(c1ccccc1Cl)c1cc([N+](=O)[O-])ccc1N2`, for which the GI50 in test [1] was 8.06 µM; in test [2], 8.85 µM; in [3] it was 7.31 µM; in test [4] it was 5 µM; in [6], 4.35 µM; in test [10] it was 1.51 µM. Moreover, the GI50 was 10.1 µM in test [7], 4.53 µM in test [8] and greater than 16.2 µM in test [9]. Besides, the TGI is greater than 24.2 µM in test [1]; greater than 22.6 µM in test [2]; greater than 23.1 µM in test [3]; greater than 17.5 µM in [4]; greater than 25 µM in test [6]; 10 µM in test [10]. Moreover, the TGI in test [7] is greater than 25 µM; in [8], 24.3 µM; in [9], greater than 25 µM.

Regarding `ClCCN(CCCl)c1ccc(CNc2ccccc2)cc1`, the GI50 in test [1] is 16.2 µM; in test [2], 12.9 µM; in test [4] it was 4.52 µM; in test [6] it was 9.67 µM; in test [10] it was 0.674 µM; in test [7] it was 12 µM. Moreover, the GI50 is 4.19 µM in test [8] and 21.8 µM in test [9]. Further, the TGI was greater than 100 µM in test [1]; 69.4 µM in [2]; 26 µM in test [4]; greater than 100 µM in test [6]; greater than 100 µM in test [10]; greater than 100 µM in test [7]. Besides, the values for the TGI in test [8] and in [9] were greater than 100 µM and 76.8 µM, respectively.

As for `COc1cc2c(cc1O)CCN[C@]21CS[C@@H]2c3c(OC(C)=O)c(C)c4c(c3[C@H](COC1=O)N1[C@@H]2[C@H]2c3c(cc(C)c(OC)c3O)C[C@@H]([C@@H]1O)N2C)OCO4`, the TGI in test [1] is 0.0718 µM; in test [2] it was 0.00529 µM; in test [3], 3.54 µM; in [4], 0.262 µM; in test [5], 0.0459 µM; in test [6], 2.94 µM. The TGI in test [10] was determined as 10.5 µM; in test [7], 3.99 µM; in [8], 0.979 µM. Also, the GI50 in test [3] is 0.00331 µM; in test [5], 0.00467 µM; in [7], 0.00309 µM.

Turning to `N#CCCN1C/C(=C/c2ccc(Br)cc2)C(=O)/C(=C/c2ccc(Br)cc2)C1`, the GI50 in test [1] is 2.69 µM; in [2], 0.262 µM; in test [3], 2.45 µM; in test [4], 0.512 µM; in test [6], 0.181 µM; in test [7], 2.93 µM. Also, the GI50 in test [8] was 0.764 µM; in test [9], 2.23 µM. For the same compound, the TGI in test [1] is greater than 100 µM; in test [2], greater than 100 µM; in test [3], 5.44 µM; in test [4], 1.76 µM; in [6] it was 0.345 µM; in [7], 8.1 µM. Besides, the results for the TGI in [8] and in test [9] were 10.4 µM and 5.29 µM, respectively.

For `CC(C)CC(C/C=C1/CC(CO)(COC(=O)C(C)(C)C)OC1=O)CC(C)C` (stereo not drawn), the TGI is 34.9 µM and 30.6 µM in test [1]; 54.5 µM and 21.2 µM in [2]; 15.7 µM and 1.97 µM in [3]; 27.9 µM and 21.9 µM in test [4]; 10.7 µM and 7 µM in test [5]; 29.5 µM and 30.9 µM in test [6]. Moreover, the TGI is 26.4 µM in [10]; 39.7 µM in test [7]; 34.2 µM and 40.3 µM in test [8]. For the same compound, the GI50 in [2] is 17.1 µM and 3.85 µM; in test [3] it was 1.58 µM and 0.543 µM; in test [4], 12.3 µM and 1.76 µM; in test [5] it was 1.25 µM and 0.247 µM.

Take `O=C1c2ccccc2-c2c1c1ccccc1c(=O)n2CCN1CCNCC1`: the GI50 in test [1] is 10.4 µM; in test [2], 1.63 µM; in test [3], 2.21 µM; in test [4], 0.735 µM; in [5], 7.24 µM; in test [6], 0.573 µM. Moreover, the GI50 was 1.73 µM in test [7], 0.836 µM in [8] and 2.53 µM in [9]. Besides, the TGI in test [1] came out at 33 µM; in test [2] it was 4.43 µM; in [3], 11.3 µM; in [4], 2.99 µM; in [5], 26.4 µM; in test [6] it was 3.97 µM. Moreover, the TGI worked out at 6.26 µM in test [7], 17.5 µM in test [8] and 6.79 µM in [9].

Consider `CC(C)(C)[Si](C)(C)OC1[C@@H](CNC(=O)NC(=O)CCl)O[C@@H](n2cnc3c(N)ncnc32)[C@H]1O[Si](C)(C)C(C)(C)C` (stereo partly drawn), for which the GI50 is 0.924 µM in test [1]; 0.805 µM in test [2]; 1.39 µM in [3]; 0.148 µM in test [4]; 0.795 µM in test [6]; 0.162 µM in test [10]. The GI50 in [7] is 1.05 µM; in test [8], 0.724 µM; in test [9] it was 0.98 µM. The TGI in [1] was 2.51 µM; in test [2], 2.34 µM; in test [3] it was 3.63 µM; in test [4] it was 0.382 µM; in test [6], 1.51 µM; in [10], 0.562 µM. Also, the values for the TGI in test [7], in test [8] and in test [9] were 2.01 µM, 1.51 µM and 1.96 µM, respectively.

In the case of `CCCCCCCCCCNC(=O)CI`, the GI50 in [1] was 1.87 µM; in test [2] it was 2.21 µM; in test [3], 1.76 µM; in test [4], less than 0.0424 µM; in test [6] it was 1.65 µM; in test [10] it was 0.204 µM. Further, the GI50 was 1.89 µM in test [7], 1.97 µM in test [8] and 0.213 µM in test [9]. For the same compound, the TGI was found to be 5.42 µM in test [1]; 5.02 µM in test [2]; 3.33 µM in test [3]; 0.104 µM in test [4]; 3.07 µM in test [6]; 0.64 µM in test [10]. The TGI in [7] amounted to 3.38 µM; in [8], 4.59 µM; in test [9], 0.494 µM.

Consider `CCCC(=O)C1=C(O)C(Cc2c(O)c(C)c(O)c(C(=O)CCC)c2O)=C(O)C(C)(C)C1=O`, for which the TGI in [1], in [2], in test [3], in test [4], in [5] and in [6] was greater than 50 µM each time. The TGI in [10] was 40.3 µM; in test [7], greater than 50 µM; in [8] it was greater than 50 µM.

`CC1(C)CN=C(NN=C(/C=C/c2ccc(C(F)(F)F)cc2)/C=C/c2ccc(C(F)(F)F)cc2)NC1`: the GI50 in test [1] was 1.29 µM; in test [2], 0.466 µM; in [3] it was 1.91 µM; in test [4] it was 1.39 µM; in [6], 1.32 µM; in test [7], 1.77 µM. Moreover, the GI50 is 1.4 µM in test [8] and 1.86 µM in test [9]. Also, the TGI in test [1] amounted to 2.72 µM; in test [2], 2.3 µM; in test [3], 3.37 µM; in test [4], 2.8 µM; in test [6], 2.75 µM; in test [7], 3.16 µM. Also, the TGI in [8] was determined as 2.92 µM; in [9], 3.78 µM.

As for `COc1cc(/C=C\c2cc(OC)c(OC)c(OC)c2)cc(N/C=C\C(=O)c2c[nH]c3ccccc23)c1OC`, the GI50 was 0.627 µM in test [2]; 1.86 µM in [3]; 1.76 µM in test [6]; 0.469 µM in test [10]; 12.3 µM in [7]; 0.72 µM in test [8]. Further, in [9], the GI50 was 1.27 µM. Moreover, the TGI in [2] was found to be 2.93 µM; in test [3], 3.54 µM; in test [6], 3.49 µM; in [10], 3.38 µM; in test [7], 27 µM; in [8], 3.15 µM. The same compound returned a TGI in test [9] of 3.18 µM.

On to `O=C(O)c1cccc(COc2ccc([N+](=O)[O-])cc2Cl)c1`, for which the GI50 was greater than 100 µM in test [1]; greater than 100 µM in test [2]; 27.2 µM in [3]; 94 µM in test [4]; 0.549 µM in test [5]; greater than 100 µM in [6]. Also, the GI50 in test [7] and in test [8] was greater than 100 µM each time. Besides, the TGI in test [1] was greater than 100 µM; in [2], greater than 100 µM; in test [3] it was greater than 100 µM; in test [4], greater than 100 µM; in test [5], 4.87 µM; in test [6], greater than 100 µM. For the same compound, the TGI in [7] and in [8] was greater than 100 µM throughout.

On to `CCC/C=C/C=C/C1CC(O)C(O)C(=O)C1CO` (stereo not drawn), for which the TGI in test [1], in test [2], in test [3], in test [4], in test [5] and in test [6] was greater than 100 µM throughout. The TGI in test [7] and in test [8] was greater than 100 µM each time.

With `COc1ccc(-c2nc(-c3cc(OC)cc(OC)c3)[nH]c2-c2ccc(OC)cc2)cc1`, the GI50 is 4.03 µM in test [1]; 2.49 µM in [2]; 53.1 µM in test [3]; 8.06 µM in test [6]; 2.43 µM in test [10]; greater than 100 µM in test [7]. The GI50 in [8] was 3.77 µM; in [9], 8.31 µM. In addition, the TGI in [1] is greater than 100 µM; in test [2], 6.96 µM; in test [3] it was greater than 100 µM; in [6], greater than 100 µM; in [10], 8.74 µM; in test [7], greater than 100 µM. Also, the TGI in test [8] and in test [9] was greater than 100 µM throughout.

For `COc1ccc(C(=O)c2cc(OC)c(OC)c(OC)c2)cc1OC`, the TGI in [2], in test [3], in [4], in [5], in test [6] and in test [10] was greater than 100 µM in each case. For the same compound, the TGI in [8] and in test [9] was greater than 100 µM throughout.
